Where “and” joins values, the source holds several entries; their conditions need not be identical. Equal entries are not always repeated. Where two headings read alike, the source gives them in different places.
Legend:
HIV-1 NL4-3 = assay: HIV-1 replication in normal donor PBMCs (p24 Gag AlphaLISA); type: cell-based; conditions: Table 1, 4 days, words (Not active, Borderline) where no bound is given
In short: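 PHA/IL-2-activated donor PBMCs infected with HIV-1 NL4-3, wild-type or Δ-Nef, with inhibitor (1–1,000 nM, 0.1% DMSO) in IL-2 medium. Lysates taken after 4 days and p24 quantified by AlphaLISA against a p24 standard; IC50 by non-linear regression, CC50 by CellTiter-Blue in uninfected cells.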

HIV-1 NefNL4-3 = HIV-1 NefNL4-3 (Human immunodeficiency virus type 1 group M subtype B, UniProt P03406, A33V/T15A/T51N/V11I); assay: Surface plasmon resonance binding to recombinant full-length Nef (NL4-3); conditions: for T, minutes (residence time): 2-step induced fit, T = 1/koff2; for RU30/RUNef (extent of binding): response units at 30 μM relative to Nef immobilized on the SPR chip
HIV-1 Nef SF2 = target: T1, HIV-1 Nef SF2 (Human immunodeficiency virus type 1 group M subtype B, UniProt P03407); assay: biochemical; type: binding; conditions: two-step induced-fit model, Reichert SPR, read-out: Reichert SPR Nef SF2 (M) two-step fitting
T1 construct: made in house

uninfected PBMCs = type: cell-based; conditions: human
Procedure: FIG. 4. Inhibition of HIV-1 replication by compounds disclosed herein in PBMCs. Donor PBMCs were infected with HIV-1 in the presence of inhibitor concentrations ranging from 1 to 1,000 nM or the DMSO carrier solvent as a negative control (0.1% DMSO final). Replication was assessed by p24 Gag AlphaLISA (Perkin Elmer) […]. Each donor was also infected with Nef-defective HIV-1 to establish the baseline for Nef-dependent enhancement of replication in each culture. Cytotoxicity was assessed in uninfected PBMCs over the same incubation period using the CellTiter-Blue assay (Promega). Data were fit by non-linear regression analysis (GraphPad Prism v.7.04) to determine the IC50 and CC50 values shown.
Non-HLA-typed buffy coats (Source: Pittsburgh Central Blood Bank, #E3755) are received and processed within 24 hours of blood donation. PBMCs are isolated via rocking for RBC separation following 1:1 dilution with PBS, followed by Ficoll gradient centrifugation. The lymphocyte fraction is removed and washed several times for a final concentration of ˜150-300×10^6 cells per donor. Cells are activated for 3 days with 1-5 μg/mL PHA (Sigma) and 50 U/mL IL-2. Cells are plated at 750,000 cells/ml and viability is checked at day 3 using the Cell Titer Blue assay (Promega). If cells are >90% viable, then they are infected with HIV-1 NL4-3, wild-type or Δ-Nef mutant (input typically 30-500 pg/mL p24 capsid equivalents) in the presence or absence of Nef inhibitor analogs. IL-2 is included in the media at the time of infection. After 4 days, cells are lysed with 1% Triton X-100 for 1.5 h, checked for viability via Cell Titer Blue, and frozen/stored at −20° C. HIV-1 replication is assessed with a high-sensitivity HIV-1 p24 AlphaLISA assay (Perkin Elmer) in ½-volume 96-well plates, using one-half of the recommended assay volumes for all reagents (including samples). Assays are read on the BioTek Cytation5 instrument; readout is in AlphaUnits and replication in p24 pg/mL is determined using an HIV-1 p24 capsid protein standard included in the Alpha kit.

TZM-bl cell line = type: cell-based; conditions: human, 1 μM
In short: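 Luciferase read-out 48 h post-infection; compound at 1 μM during HIV-1NL4-3 infection of TZM-bl cells. Percent inhibition scaled to DMSO wild-type virus (0%) and DMSO Nef-defective virus (100% of Nef-dependent effect). Viability checked separately in uninfected cells by Cell Titer Blue.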

[1] = target: Nef from SIV (strain mac239) (Simian immunodeficiency virus, UniProt Q5QGG3); assay: biochemical
Procedure: Also shown are SPR data recorded on a Reichert 4-channel SPR instrument. […] Recombinant Nef is immobilized on the biosensor surface, and each compound is injected and association/dissociation kinetics are recorded. The resulting data for the 3 isoforms are each best-fit using both a two-site model and a two-step, induced-fit model. Dissociation constants (KD), calculated from the kinetic association and dissociation constants from all three isoforms, are shown in columns 6-7. Data were fit using three regimes and the resulting KD: from each model are shown in the Table: 1:1 Langmuir fit; 2-site fit, which yields low and high affinity components; and a 2-step induced fit model.

HIV-1NL4-3 = assay: HIV-1 infectivity assay in TZM-bl reporter cell line (LTR-luciferase, 48 h); type: cell-based; conditions: for inhibition at 1 µM: Human immunodeficiency virus 1, TZM-bl
In short: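 Compounds were tested at 1 μM in TZM-bl cells infected with HIV-1NL4-3. Infectivity was read as luciferase signal 48 h after infection and expressed as percent inhibition, normalized between DMSO-treated wild-type infection (0%) and DMSO-treated Nef-defective HIV-1 infection (100% of the Nef-dependent effect).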

[2] = KD, M, Table 4, SPR fit 2-step induced fit, KD = koff/kon × koff2/(koff2 + kon2)
[3] = Nef NL4-3 Binding, SPR 2-state fitting KD, Table 1, 2-step induced-fit model
[4] = Reichert SPR Nef NL43 (M) two-step fitting, KD, two-step induced-fit model, Reichert SPR, Table 3
[5] = read-out: Nef NL4-3 Binding, SPR 1:1 or 2-site fitting KD2, Table 1, 2-site fit, second component
[6] = 1.0 μM, TZM-bl reporter cell line, Table 4, read-out: % Infectivity Inhibition
[7] = 1 μM, TZM-bl, normalized: DMSO wild-type HIV-1 = 0%, Nef-defective HIV-1 = 100%, read-out: HIV-1 Infectivity % Inhibition norm. to Δ-Nef @ 1 μM
[8] = 48 h, Table 1, TZM-bl cells, 1 μM, 48 h, 100% = Nef-defective HIV-1, read-out: HIV-1 Infectivity % Inhibition Norm. to Δ-Nef @ 1 μM

## Oc1c(CCc2ccncc2)c(-c2ccc(C(F)(F)F)cc2)nn1-c1nc2ccccc2[nH]1 [Compound I-101, 1-(1H-1,3-benzodiazol-2-yl)-4-[2-(pyridin-4-yl)ethyl]-3-[4-(trifluoromethyl)phenyl]-1H-pyrazol-5-ol]
HIV-1 NL4-3; Human immunodeficiency virus 1, NL43, PBMC, 96 h
  IC50: ≤ 1 nM
HIV-1 NefNL4-3
  Kd: 1.77e-06 M
  RU30/RUNef (extent of binding): 1.33E- 02
HIV-1 NefNL4-3; [2]
  Kd: 2.91e-10 M
HIV-1 NefNL4-3; [3]
  Kd: 2.91e-10 M
HIV-1 NefNL4-3; [4]
  Kd: 2.91e-10 M
HIV-1 NefNL4-3; Table 1, 1:1 Langmuir fit where the KD2 cell says '1 to 1 fitting', else 2-site fit
  Nef NL4-3 Binding, SPR 1:1 or 2-site fitting KD1: No Interaction
HIV-1 NefNL4-3; Table 4
  T, minutes (residence time): 7.00E + 04 minutes
HIV-1 NefNL4-3; [5]
  Kd: 1.47e-05 M
HIV-1 Nef SF2
  Kd: 1.43e-10 M
Uninfected PBMCs
  Toxicity in HIV Replication PBMC (Toxic @ concentration): Toxic @ 1 μM
TZM-bl cell line
  % Cell Viability: 76.3%
  Toxicity % Viability @ 1 μM (TZM-bl): 76.3%
[1]
  Kd: 25.4 nM
HIV-1NL4-3; [6]
  inhibition at 1 µM: 100%
HIV-1NL4-3; [7]
  inhibition at 1 µM: 128%
HIV-1NL4-3; Table 1, TZM-bl cells, 1 μM, 48 h, 100% = Nef-defective HIV-1
  HIV-1 Infectivity % Inhibition Norm. to Δ-Nef @ 1 μM: 78.5%

## CS(=O)(=O)c1ccc(-c2nn(-c3nc4ccccc4[nH]3)c(O)c2CCc2ccc(F)cc2)cc1 [Compound I-148, 1-(1H-1,3-benzodiazol-2-yl)-4-[2-(4-fluorophenyl)ethyl]-3-(4-methanesulfonylphenyl)-1H-pyrazol-5-ol]
HIV-1 NL4-3
  HIV Replication PBMC IC50 vs. HIV NL4-3: Not active
HIV-1 NefNL4-3
  Kd: 6.56e-07 M
  RU30/RUNef (extent of binding): 1.32E- 02
HIV-1 NefNL4-3; [2]
  Kd: 3.33e-10 M
HIV-1 NefNL4-3; Nef NL4-3 Binding, SPR 1:1 or 2-site fitting KD2, Table 1, 2-site fit, second component
  Kd: 1.77e-06 M
HIV-1 NefNL4-3; [3]
  Kd: 3.33e-10 M
HIV-1 NefNL4-3; [4]
  Kd: 3.33e-10 M
HIV-1 NefNL4-3; Table 4
  T, minutes (residence time): 3.26E + 04 minutes
HIV-1 Nef SF2
  Kd: 2.07e-11 M
Uninfected PBMCs
  Toxicity in HIV Replication PBMC (Toxic @ concentration): Toxic @ 1 μM
TZM-bl cell line
  % Cell Viability: 75.5%
  Percent Viability @ 1 μM (TZM-bl cells): 75.5%
[1]
  Kd: 1.08 nM
HIV-1NL4-3; [6]
  inhibition at 1 µM: 98.1%
HIV-1NL4-3; [7]
  inhibition at 1 µM: 98.1%
HIV-1NL4-3; [8]
  inhibition at 1 µM: 98.1%

## CC(C)(C)OC(=O)N1CCC(CCc2c(-c3ccc(S(C)(=O)=O)cc3)nn(-c3nc4ccccc4[nH]3)c2O)CC1 [Compound I-201, tert-butyl 4-{2-[1-(1H-1,3-benzodiazol-2-yl)-5-hydroxy-3-(4-methanesulfonylphenyl)-1H-pyrazol-4-yl]ethyl}piperidine-1-carboxylate]
HIV-1 NL4-3
  HIV Replication PBMC IC50 vs. HIV NL4-3: Not active
HIV-1 NefNL4-3; [2]
  Kd: 3.94e-07 M
HIV-1 NefNL4-3; [3]
  Kd: 3.94e-07 M and 1.93e-06 M
HIV-1 NefNL4-3; [4]
  Kd: 3.94e-07 M
HIV-1 NefNL4-3; Table 4
  T, minutes (residence time): 2.62E + 01 minutes
HIV-1 NefNL4-3
  RU30/RUNef (extent of binding): 1.83E- 02
HIV-1 Nef SF2
  Kd: 5.01e-07 M
Uninfected PBMCs
  Toxicity in HIV Replication PBMC (Toxic @ concentration): Toxic @ 1 μM
TZM-bl cell line
  % Cell Viability: 70.5%
  Toxicity % Viability @ 1 μM (TZM-bl): 70.5%
[1]
  Kd: 23.8 nM
HIV-1NL4-3; [6]
  inhibition at 1 µM: 53.4%
HIV-1NL4-3; [7]
  inhibition at 1 µM: 53.4%

## CC(C)OC(=O)N1CCC(c2nn(-c3nc4cc(Cl)ccc4[nH]3)c(O)c2CCC2CCOCC2)CC1 [Compound I-701, propan-2-yl4-[1-(5-chloro-1H-1,3-benzodiazol-2-yl)-5-hydroxy-4-[2-(oxan-4-yl)ethy1]-1H-pyrazol-3-yl]piperidine-1-carboxylate]
HIV-1 NefNL4-3
  Kd: 2.64e-08 M
  RU30/RUNef (extent of binding): 5.85E- 03
HIV-1 NefNL4-3; [2]
  Kd: 2.88e-06 M
HIV-1 NefNL4-3; [3]
  Kd: 2.88e-06 M
HIV-1 NefNL4-3; [4]
  Kd: 2.88e-06 M
HIV-1 NefNL4-3; Table 4
  T, minutes (residence time): 4.73E + 00 minutes
HIV-1 NefNL4-3; [5]
  Kd: 4.02e-06 M
HIV-1 Nef SF2
  Kd: 1.37e-07 M
Uninfected PBMCs
  Toxicity in HIV Replication PBMC (Toxic @ concentration): Toxic @ 10 nM
TZM-bl cell line
  % Cell Viability: 98.7%
  Percent Viability @ 1 μM (TZM-bl cells): 98.7%
[1]
  Kd: 19300 nM
HIV-1NL4-3; [6]
  inhibition at 1 µM: 100%
HIV-1NL4-3; [7]
  inhibition at 1 µM: 106%
HIV-1NL4-3; [8]
  inhibition at 1 µM: 106%

## CC(C)COC(=O)N1CCC(c2nn(-c3nc4ccccc4[nH]3)c(O)c2CCc2ccc(F)cc2)CC1 [Compound I-721, 2-methylpropyl 4-[1-(1H-1,3-benzodiazol-2-yl)-4-[2-(4-fluorophenyl)ethyl]-5-hydroxy-1H-pyrazol-3-yl]piperidine-1-carboxylate]
HIV-1 NL4-3
  HIV Replication PBMC IC50 vs. HIV NL4-3: Borderline
HIV-1 NefNL4-3
  Kd: 2.24e-07 M
  RU30/RUNef (extent of binding): 1.20E- 02
HIV-1 NefNL4-3; [2]
  Kd: 3.72e-05 M
HIV-1 NefNL4-3; [3]
  Kd: 3.72e-05 M
HIV-1 NefNL4-3; [4]
  Kd: 3.72e-05 M
HIV-1 NefNL4-3; Table 4
  T, minutes (residence time): 4.69E + 02 minutes
HIV-1 NefNL4-3; [5]
  Kd: 1.76e-06 M
HIV-1 Nef SF2
  Kd: 5.88e-06 M
Uninfected PBMCs
  Toxicity in HIV Replication PBMC (Toxic @ concentration): Toxic @ 10 nM
TZM-bl cell line
  % Cell Viability: 84.3%
  Percent Viability @ 1 μM (TZM-bl cells): 84.3%
[1]
  Kd: 82.6 nM
HIV-1NL4-3; [6]
  inhibition at 1 µM: 100%
HIV-1NL4-3; [7]
  inhibition at 1 µM: 120%
HIV-1NL4-3; [8]
  inhibition at 1 µM: 120%

— US20220380341A1, “INHIBITORS OF HIV-1 NEF FOR THE TREATMENT OF HIV DISEASE” (priority 2018, published 2022)
